Oligonucleotides are given in HELM: sugar(base)linkage, 5' to 3'; d 2'-deoxyribose, r ribose, m 2'-O-methylribose, p phosphate. ss, as = sense and antisense strand
target: CDC34; test: reporter assay of Huesken 2005; conditions: siRNA
Further: test concentration or dose not given here.

Substance	normalised inhibition (eCFP-eYFP dual reporter)
RNA1{r(C)p.r(U)p.r(A)p.r(C)p.r(G)p.r(A)p.r(G)p.r(G)p.r(G)p.r(C)p.r(G)p.r(G)p.r(C)p.r(U)p.r(A)p.r(C)p.r(U)p.r(U)p.r(C)p.d(T)p.d(T)}|RNA2{r(G)p.r(A)p.r(A)p.r(G)p.r(U)p.r(A)p.r(G)p.r(C)p.r(C)p.r(G)p.r(C)p.r(C)p.r(C)p.r(U)p.r(C)p.r(G)p.r(U)p.r(A)p.r(G)p.d(T)p.d(A)}$$$RNA1{StrandType:ss}|RNA2{StrandType:as}$	59.8%
RNA1{r(G)p.r(A)p.r(U)p.r(C)p.r(U)p.r(A)p.r(U)p.r(A)p.r(C)p.r(A)p.r(A)p.r(C)p.r(U)p.r(G)p.r(G)p.r(G)p.r(A)p.r(G)p.r(G)p.d(T)p.d(T)}|RNA2{r(C)p.r(C)p.r(U)p.r(C)p.r(C)p.r(C)p.r(A)p.r(G)p.r(U)p.r(U)p.r(G)p.r(U)p.r(A)p.r(U)p.r(A)p.r(G)p.r(A)p.r(U)p.r(C)p.d(G)p.d(C)}$$$RNA1{StrandType:ss}|RNA2{StrandType:as}$	41.7%
RNA1{r(A)p.r(C)p.r(C)p.r(C)p.r(C)p.r(A)p.r(C)p.r(G)p.r(C)p.r(A)p.r(G)p.r(A)p.r(A)p.r(C)p.r(G)p.r(U)p.r(C)p.r(A)p.r(G)p.d(T)p.d(T)}|RNA2{r(C)p.r(U)p.r(G)p.r(A)p.r(C)p.r(G)p.r(U)p.r(U)p.r(C)p.r(U)p.r(G)p.r(C)p.r(G)p.r(U)p.r(G)p.r(G)p.r(G)p.r(G)p.r(U)p.d(T)p.d(C)}$$$RNA1{StrandType:ss}|RNA2{StrandType:as}$	57.8%
RNA1{r(A)p.r(A)p.r(G)p.r(A)p.r(C)p.r(C)p.r(A)p.r(A)p.r(G)p.r(G)p.r(C)p.r(G)p.r(C)p.r(C)p.r(G)p.r(G)p.r(C)p.r(G)p.r(C)p.d(T)p.d(T)}|RNA2{r(G)p.r(C)p.r(G)p.r(C)p.r(C)p.r(G)p.r(G)p.r(C)p.r(G)p.r(C)p.r(C)p.r(U)p.r(U)p.r(G)p.r(G)p.r(U)p.r(C)p.r(U)p.r(U)p.d(C)p.d(A)}$$$RNA1{StrandType:ss}|RNA2{StrandType:as}$	25.5%
RNA1{r(G)p.r(C)p.r(G)p.r(A)p.r(U)p.r(C)p.r(U)p.r(A)p.r(U)p.r(A)p.r(C)p.r(A)p.r(A)p.r(C)p.r(U)p.r(G)p.r(G)p.r(G)p.r(A)p.d(T)p.d(T)}|RNA2{r(U)p.r(C)p.r(C)p.r(C)p.r(A)p.r(G)p.r(U)p.r(U)p.r(G)p.r(U)p.r(A)p.r(U)p.r(A)p.r(G)p.r(A)p.r(U)p.r(C)p.r(G)p.r(C)p.d(C)p.d(C)}$$$RNA1{StrandType:ss}|RNA2{StrandType:as}$	74%
RNA1{r(G)p.r(G)p.r(A)p.r(A)p.r(G)p.r(G)p.r(A)p.r(U)p.r(C)p.r(G)p.r(G)p.r(G)p.r(A)p.r(G)p.r(U)p.r(A)p.r(C)p.r(A)p.r(C)p.d(T)p.d(T)}|RNA2{r(G)p.r(U)p.r(G)p.r(U)p.r(A)p.r(C)p.r(U)p.r(C)p.r(C)p.r(C)p.r(G)p.r(A)p.r(U)p.r(C)p.r(C)p.r(U)p.r(U)p.r(C)p.r(C)p.d(C)p.d(C)}$$$RNA1{StrandType:ss}|RNA2{StrandType:as}$	56.5%
RNA1{r(G)p.r(C)p.r(U)p.r(G)p.r(C)p.r(C)p.r(C)p.r(U)p.r(C)p.r(A)p.r(G)p.r(A)p.r(G)p.r(A)p.r(G)p.r(G)p.r(U)p.r(G)p.r(G)p.d(T)p.d(T)}|RNA2{r(C)p.r(C)p.r(A)p.r(C)p.r(C)p.r(U)p.r(C)p.r(U)p.r(C)p.r(U)p.r(G)p.r(A)p.r(G)p.r(G)p.r(G)p.r(C)p.r(A)p.r(G)p.r(C)p.d(T)p.d(C)}$$$RNA1{StrandType:ss}|RNA2{StrandType:as}$	39.3%
RNA1{r(G)p.r(C)p.r(C)p.r(C)p.r(G)p.r(A)p.r(C)p.r(G)p.r(A)p.r(G)p.r(G)p.r(G)p.r(C)p.r(U)p.r(C)p.r(A)p.r(G)p.r(A)p.r(C)p.d(T)p.d(T)}|RNA2{r(G)p.r(U)p.r(C)p.r(U)p.r(G)p.r(A)p.r(G)p.r(C)p.r(C)p.r(C)p.r(U)p.r(C)p.r(G)p.r(U)p.r(C)p.r(G)p.r(G)p.r(G)p.r(C)p.d(G)p.d(C)}$$$RNA1{StrandType:ss}|RNA2{StrandType:as}$	33.6%
RNA1{r(G)p.r(A)p.r(A)p.r(G)p.r(G)p.r(A)p.r(U)p.r(C)p.r(G)p.r(G)p.r(G)p.r(A)p.r(G)p.r(U)p.r(A)p.r(C)p.r(A)p.r(C)p.r(A)p.d(T)p.d(T)}|RNA2{r(U)p.r(G)p.r(U)p.r(G)p.r(U)p.r(A)p.r(C)p.r(U)p.r(C)p.r(C)p.r(C)p.r(G)p.r(A)p.r(U)p.r(C)p.r(C)p.r(U)p.r(U)p.r(C)p.d(C)p.d(C)}$$$RNA1{StrandType:ss}|RNA2{StrandType:as}$	74.3%
RNA1{r(A)p.r(C)p.r(G)p.r(U)p.r(C)p.r(A)p.r(G)p.r(G)p.r(A)p.r(C)p.r(C)p.r(A)p.r(U)p.r(U)p.r(C)p.r(U)p.r(C)p.r(C)p.r(U)p.d(T)p.d(T)}|RNA2{r(A)p.r(G)p.r(G)p.r(A)p.r(G)p.r(A)p.r(A)p.r(U)p.r(G)p.r(G)p.r(U)p.r(C)p.r(C)p.r(U)p.r(G)p.r(A)p.r(C)p.r(G)p.r(U)p.d(T)p.d(C)}$$$RNA1{StrandType:ss}|RNA2{StrandType:as}$	72.2%
RNA1{r(G)p.r(A)p.r(U)p.r(G)p.r(U)p.r(A)p.r(C)p.r(A)p.r(G)p.r(G)p.r(A)p.r(A)p.r(G)p.r(U)p.r(G)p.r(G)p.r(A)p.r(A)p.r(A)p.d(T)p.d(T)}|RNA2{r(U)p.r(U)p.r(U)p.r(C)p.r(C)p.r(A)p.r(C)p.r(U)p.r(U)p.r(C)p.r(C)p.r(U)p.r(G)p.r(U)p.r(A)p.r(C)p.r(A)p.r(U)p.r(C)p.d(A)p.d(C)}$$$RNA1{StrandType:ss}|RNA2{StrandType:as}$	82.9%
RNA1{r(A)p.r(C)p.r(U)p.r(A)p.r(C)p.r(G)p.r(A)p.r(G)p.r(G)p.r(G)p.r(C)p.r(G)p.r(G)p.r(C)p.r(U)p.r(A)p.r(C)p.r(U)p.r(U)p.d(T)p.d(T)}|RNA2{r(A)p.r(A)p.r(G)p.r(U)p.r(A)p.r(G)p.r(C)p.r(C)p.r(G)p.r(C)p.r(C)p.r(C)p.r(U)p.r(C)p.r(G)p.r(U)p.r(A)p.r(G)p.r(U)p.d(A)p.d(G)}$$$RNA1{StrandType:ss}|RNA2{StrandType:as}$	73.7%
RNA1{r(C)p.r(A)p.r(G)p.r(G)p.r(U)p.r(C)p.r(C)p.r(U)p.r(G)p.r(G)p.r(G)p.r(G)p.r(A)p.r(C)p.r(C)p.r(A)p.r(A)p.r(G)p.r(G)p.d(T)p.d(T)}|RNA2{r(C)p.r(C)p.r(U)p.r(U)p.r(G)p.r(G)p.r(U)p.r(C)p.r(C)p.r(C)p.r(C)p.r(A)p.r(G)p.r(G)p.r(A)p.r(C)p.r(C)p.r(U)p.r(G)p.d(C)p.d(T)}$$$RNA1{StrandType:ss}|RNA2{StrandType:as}$	43%
RNA1{r(U)p.r(G)p.r(G)p.r(C)p.r(C)p.r(G)p.r(A)p.r(G)p.r(U)p.r(A)p.r(C)p.r(U)p.r(G)p.r(C)p.r(G)p.r(U)p.r(G)p.r(A)p.r(A)p.d(T)p.d(T)}|RNA2{r(U)p.r(U)p.r(C)p.r(A)p.r(C)p.r(G)p.r(C)p.r(A)p.r(G)p.r(U)p.r(A)p.r(C)p.r(U)p.r(C)p.r(G)p.r(G)p.r(C)p.r(C)p.r(A)p.d(G)p.d(C)}$$$RNA1{StrandType:ss}|RNA2{StrandType:as}$	65.2%
